Reference: patent US20040214238A1 (priority 2003, published 2004)
Values joined by “and” are separate entries in the source; they are usually repeats but may differ in a detail not shown here. Equal values may be shown once.

What was measured:
N-type calcium channel = details: in vivo; cited from earlier work
[1] = biological target: vanilloid receptor (VR1) in DRG neurons (Rattus norvegicus, UniProt O35433); experiment: capsaicin screening by whole cell voltage clamp at -60 mV; details: 2 μM capsaicin, 128 responsive neurons
Protocol: Viable neurons were identified using whole cell voltage clamp recordings based on the presence of robust voltage-gated sodium and potassium currents. Neurons were then exposed to 2 μM capsaicin (Sigma). After exposure, the bath was washed and the cell allowed to recover. Capsaicin-responsive cells had to recover after wash to be included. Capsaicin-non-responsive neurons were expose at least twice to capsaicin before the cell was collected and counted as capsaicin-non-responsive. Coverslips in the study were limited to two exposures of capsaicin to avoid desensitization. 1-2 MΩ microelectrodes were filled with an internal solution consisting of 90 mM KCl, 10 mM NaCl, 5 mM MgCl2, 40 mM HEPES, 5 mM EGTA and the pH was adjusted to 7.4 with KOH. The bath solution contained 140 mM NaCl, 5 mM KCl, 2 mM CaCl2, 0.5 mM MgCl2, 10 mM HEPES, and 15 mM Dextrose. […]
Viable neurons were identified by the presence of robust voltage-gated sodium and potassium currents during brief depolarizations from a holding potential of −80 mV. […] Capsaicin-non-responsive neurons were exposed to capsaicin at least twice before the cell was harvested and counted as capsaicin-non-responsive. […] For capsaicin screening, currents were recorded using 1-2 MΩ microelectrodes filled with an internal solution consisting of 90 mM KCl, 10 mM NaCl, 5 mM MgCl2 40 mM HEPES, and 5 mM EGTA adjusted to a pH of 7.4 with KOH. […]

CaV1.3 L-type channels = details: cited from earlier work
[2] = test system: N-type calcium current in neurons of the dorsal root ganglia; format: cell-based, rat

Chain of vanilloid receptor (VR1) in DRG neurons (O35433 whole entry): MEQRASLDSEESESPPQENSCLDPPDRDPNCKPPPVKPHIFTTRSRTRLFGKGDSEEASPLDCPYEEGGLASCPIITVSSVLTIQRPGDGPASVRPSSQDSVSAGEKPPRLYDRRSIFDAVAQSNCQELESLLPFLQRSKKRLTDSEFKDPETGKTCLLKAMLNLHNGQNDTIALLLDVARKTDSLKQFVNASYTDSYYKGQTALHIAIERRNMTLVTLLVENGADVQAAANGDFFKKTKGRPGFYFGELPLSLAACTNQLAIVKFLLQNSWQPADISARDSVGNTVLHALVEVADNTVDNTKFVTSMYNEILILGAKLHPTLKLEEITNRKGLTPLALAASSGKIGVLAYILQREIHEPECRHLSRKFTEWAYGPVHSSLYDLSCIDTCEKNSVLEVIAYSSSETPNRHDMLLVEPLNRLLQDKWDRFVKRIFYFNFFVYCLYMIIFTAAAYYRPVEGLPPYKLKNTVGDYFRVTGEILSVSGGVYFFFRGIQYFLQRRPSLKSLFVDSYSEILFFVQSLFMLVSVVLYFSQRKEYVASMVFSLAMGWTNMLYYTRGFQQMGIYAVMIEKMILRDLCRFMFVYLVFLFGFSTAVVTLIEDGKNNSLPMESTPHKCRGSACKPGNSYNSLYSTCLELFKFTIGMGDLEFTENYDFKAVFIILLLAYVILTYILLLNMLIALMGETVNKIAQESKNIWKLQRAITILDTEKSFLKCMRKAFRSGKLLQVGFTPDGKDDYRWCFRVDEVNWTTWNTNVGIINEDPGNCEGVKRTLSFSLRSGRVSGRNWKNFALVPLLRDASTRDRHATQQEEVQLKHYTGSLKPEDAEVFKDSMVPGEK

For `CSCC[C@@H]1NC(=O)[C@H](CC(C)C)NC(=O)[C@H](CCCNC(=N)N)NC(=O)[C@H](CO)NC(=O)[C@@H]2CSSC[C@@H]3NC(=O)[C@H](CO)NC(=O)CNC(=O)[C@H]([C@@H](C)O)NC(=O)[C@H](CSSC[C@H](N)C(=O)N[C@@H](CCCCN)C(=O)NCC(=O)N[C@@H](CCCCN)C(=O)NCC(=O)N[C@@H](C)C(=O)N[C@@H](CCCCN)C(=O)N2)NC(=O)[C@H](CSSC[C@@H](C(N)=O)NC(=O)[C@H](CCCCN)NC(=O)CNC(=O)[C@H](CO)NC(=O)[C@H](CCCNC(=N)N)NC3=O)NC(=O)[C@H](CC(=O)O)NC(=O)[C@H](Cc2ccc(O)cc2)NC1=O` [MVIIA], the analgesic activity (N-type calcium channel) is given as “powerful analgesic” and the “side effects as analgesic” value (N-type calcium channel) is given as “undesirable side effects”.
With `COc1cc(CNC(=O)CCCC/C=C/C(C)C)ccc1O` [capsaicin] the “average amplitude of capsaicin-induced inward current” value [1] was 986±118 pA.
In the case of “ω-conotoxin GVIA (CKSPGSSCSPTSYNCCRSCNPYTKRCY) [ω-Ctx GVIA]”, the “effect on CaV1.3 L-type current” value (CaV1.3 L-type channels) is listed as “inhibited by high concentrations”, the “effect on neuronal CaV1.3 L-type channels” value (CaV1.3 L-type channels) is listed as “not ω-Ctx GVIA-sensitive” and the “ω-Ctx GVIA-sensitive current as % of the total whole cell calcium current” value [2] is listed as 71±2% and 68±2%. The “ω-Ctx GVIA-sensitive, N-type current as component of the total Ca current” value [2] was ~70%.
